Laboratory results as given in ChEMBL document CHEMBL1141835, “Sclerotigenin: A new antiinsectan benzodiazepine from the sclerotia of penicillium sclerotigenum” (1999).

Test system: Helicoverpa zea
Experiment: Insecticidal activity against first instar larvae of Helicoverpa zea at 200 ppm administered with diet relative to control
Type: functional

SMILES: O=C1NCc2nc3ccccc3c(=O)n2-c2ccccc21 [SCLEROTIGENIN]
- Activity: 42%
